According to publication PMC9241695, “Selective Metal Chelation by a Thiosemicarbazone Derivative Interferes with Mitochondrial Respiration and Ribosome Biogenesis in Candida albicans” (Microbiology Spectrum, 2022):
Converted amounts (≈) assume the structure as drawn.

Columns and labels:
A. fumigatus AF293 = experiment: Antifungal susceptibility testing, microbroth dilution MIC; type: cell-based; details: Aspergillus fumigatus, AF293, 48 h, read-out: MIC (μg/mL) against fungi AF293
Source text: (§1) Compound library. The thiosemicarbazone derivatives Triapine and COTI-2 were purchased from Med Chem Express (MCE). The other 87 thiosemicarbazones used in this study were previously synthesized by our collaborators (1, 2). Their structures are shown in Table 1 and Table S1 to help the reader clearly understand the relationship between structure and activity.
(§2) Strains and culture conditions. Clinically derived C. albicans isolates, including G5, F5, and Gu5, were kindly provided by Professor Joachim Morschhäuser of the University of Würzburg. Other clinical C. albicans isolates were kindly donated by Professor Qingguo Qi of Shandong University and Qianfoshan Hospital of Shandong Province Other Candida strains were obtained from Jinan Central Hospital.
(§3) The zap1 mutant and its complemented strain were kindly provided by Professor Aaron P. Mitchell of Carnegie Mellon University (3). The C. neoformans strains used in this study was kindly donated by Professor Guojian Liao of Southwest University and A. fumigatus strain used in this study was provided by Professor Ling Lu of Nanjing Normal University. […]
(§4) Antifungal susceptibility testing. To determine in vitro antifungal activities, the microbroth dilution method was carried out in RPMI1640 medium according to the guidelines of the Clinical and Laboratory Standards Institute (4, 5). The initial concentration in RPMI1640 medium was 1 × 10^3 CFU/mL for the C. albicans and C. neoformans suspensions but 1 × 10^4 CFU/mL for A. fumigatus. The range of final drug concentrations was 0.0156–64 μg/mL. The plates were incubated at35°C for 24 […]
(§5) h (for C. albicans, C. krusei, C. tropicalis, C. parapsilosis) or 48 h (for C. neoformans, A. fumigatus). The MIC was determined based on visible growth inhibition compared with the control. All experiments were performed in duplicate. […]

C. neoformans H99 = experiment: as above; type: cell-based; details: Cryptococcus neoformans, H99, 48 h, read-out: MIC (μg/mL) against fungi H99
Source text: as §1, §2, §3, §4, §5

C. albicans SC5314 [1] = experiment: as above; type: cell-based; details: Candida albicans, SC5314, 24 h, read-out: MIC (μg/mL) against fungi SC5314
Source text: as §1, §2
as §3, with “University. Before in vitro and in vivo experiments, all C. albicans strains were grown on YPD agar plates. After culturing at 30°C for 24 h, colonies of each strain were cultured in liquid YPD medium at 30°C with continuous shaking” for “University.”
as §4, §5

C. albicans SC5314 [2] = experiment: qPCR of genes associated with ribosome biogenesis; type: cell-based, Candida albicans; details: CPX 0.5 or 2 μg/mL 8 h; DFO 64 µg/mL 6 h; TPEN 0.05 or 0.2 μg/mL 6 h
Experimental: Determination of SOD activity. SOD activity was measured using the Superoxide Dismutase Activity Assay Kit (Njjcbio, Nanjing, China) following the manufacturer's instructions. An overnight culture of C. albicans SC5314 was adjusted to 1 × 10^7 cells/mL with RPMI1640 medium and treated with 19ak at a final concentration of 0, 0.125, 0.25, 0.5, or 1 μg/mL for 6 h. After collection by centrifugation, the cells were broken by glass beads in extraction buffer and centrifuged at 4°C. The absorbance of the supernatant of each sample was measured with a microplate reader at450 nm.
Determination of catalase (CAT) activity. CAT activity was measured by using a Catalase Assay Kit (Solarbio, Beijing, China) following the manufacturer's instructions. An overnight culture of C. albicans SC5314 was adjusted to 1 × 10^6 cells/mL with RPMI1640 medium and treated as described above for SOD activity.
The decomposition of H2O2 is directly accompanied by a decrease in absorbance at 240 nm, and the difference in absorbance per unit time (ΔA240) is a measure of […]
Quantitative real-time polymerase chain reaction (qPCR) analysis. C. albicans SC5314 cells (1 × 10^6 cells/mL) were incubated with or without 19ak (0.5,2 […]
Total RNA was extracted using the hot phenol method, and the RNA quality was analyzed using a spectrophotometer (Eppendorf, Hamburg, Germany). The RNA was converted to cDNA using a cDNA Reverse
Transcription kit (Accurate Biotechnology, Hunan, China). PCR detection based on SYBR Green was performed on an Eppendorf real-time PCR system (Eppendorf, […]
Drug resistance study. Drug resistance studies were carried out by repeatedly treating C. albicans with an antifungal agent followed by MIC determination using […]

SMILES | MIC (A. fumigatus AF293) | MIC (C. neoformans H99) | MIC (C. albicans SC5314 [1]) | Expression of genes associated with ribosome biogenesis (qPCR) (C. albicans SC5314 [2])
C/C(=N\NC(=S)Nc1ccccc1Br)c1ccccn1 [Compound 19r] | 8 µg/mL (≈ 22.9 µM) | 8 µg/mL (≈ 22.9 µM) | 1 µg/mL (≈ 2.86 µM) | –
CC(=O)N(O)CCCCCNC(=O)CCC(=O)N(O)CCCCCNC(=O)CCC(=O)N(O)CCCCCN [DFO, deferoxamine] | – | – | – | minor effects
S=C(N/N=C1\CCCc2cccnc21)N1CCN(c2ccccn2)CC1 [COTI-2, 4-(pyridine-2-yl)-N-([(8E)-5,6,7,8-tetrahydroquinolin-8-ylidene]amino) piperazine-1-carbothioamide, reference compound] | 1 µg/mL (≈ 2.73 µM) | 0.0625 µg/mL (≈ 0.171 µM) | 0.5 µg/mL (≈ 1.36 µM) | –
S=C(N/N=C/c1ccccn1)N1CCOCC1 [Compound 19ao] | 8 µg/mL (≈ 32 µM) | 0.5 µg/mL (≈ 2 µM) | 2 µg/mL (≈ 7.99 µM) | –
